Here are results for five compounds from patent publication US7772241B2, “Variolin derivatives and their use as antitumor agents” (Pharma Mar S.A., priority 2001, dated 2010).

One data set has as its system A-549. Nature of the data set: Inhibition of cells growth by colorimetric (SRB) assay, A-549. Conditions: for GI50 / CC50: Homo sapiens, A549, 48 h; for A-549 TGI / TGI A-549: SRB assay, 48 hours exposure. Summed up: (§1)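 Read-out is sulforhodamine B protein stain (OD 490 nm) after cold TCA fixation, following 48 h continuous exposure to samples spanning 10 to 10^−8 μg/ml.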

The next data set concerns HT-29. The experiment in a line: Inhibition of cells growth by colorimetric (SRB) assay, HT-29. The following applies: for GI50 / CC50: Homo sapiens, HT-29, 48 h; for HT-29 TGI / TGI HT-29: SRB assay, 48 hours exposure. A digest of the protocol: as §1
A short description of data set [1]: Inhibition of cells growth by colorimetric (SRB) assay, HMEC1. Conditions: human, HMEC1 cells, 48 hours exposure.
The subject of another data set is HMEC1. Described as above. The following applies: for GI50: Homo sapiens, HMEC-1, 48 h; for H-MEC-1 TGI / TGI H-MEC-1: SRB assay, 48 hours exposure, in M (unit assumed).
[2] abbreviates: read-out: A-549 GI50, SRB assay, 48 hours exposure.
[3] abbreviates: read-out: A-549 LC50, SRB assay, 48 hours exposure.
Setting [4] is: read-out: HT-29 GI50, SRB assay, 48 hours exposure.
The mark [5] stands for this setting: read-out: HT-29 LC50, SRB assay, 48 hours exposure.
Setting [6] is: read-out: H-MEC-1 GI50, SRB assay, 48 hours exposure.
Setting [7] is: read-out: GI50 A-549, SRB assay, 48 hours exposure.
[8] abbreviates: read-out: LC50 A-549, SRB assay, 48 hours exposure.
Where [9] appears, read: read-out: GI50 HT-29, SRB assay, 48 hours exposure.
[10] abbreviates: read-out: LC50 HT-29, SRB assay, 48 hours exposure.
The mark [11] stands for this setting: read-out: GI50 H-MEC-1, SRB assay, 48 hours exposure.

Like-named read-outs stand apart in the source and are kept apart here.

For `Nc1nccc2c(-c3ccncn3)c3cccnc3n12` [Compound 70], the GI50 in the data set with A-549 (setting [2]) came out at 0.182 µM; in the data set on HT-29 (setting [4]), 0.0381 µM; with HMEC1 (setting [6]), 0.119 µM. In addition, the CC50 worked out at 3.35 µM in the data set on A-549 (setting [3]) and 38.1 µM with HT-29 (setting [5]). Further, in the data set with A-549, the “A-549 TGI” value worked out at 5.60E−07. The “HT-29 TGI” value in the data set on HT-29 was determined as 3.81E−06. Moreover, the CC50 at 48 h in data set [1] (H-MEC-1 LC50, SRB assay) worked out at 4 µM. Further, the “H-MEC-1 TGI” value with HMEC1 worked out at 3.93E−07.
For the compound `Cc1nccc(-c2c3cccnc3n3c(N)nccc23)n1` [Compound 75], the GI50 with A-549 (setting [2]) was 4.2 µM; in the data set with HT-29 (setting [4]), 5.79 µM; with HMEC1 (setting [6]), 1.43 µM. The CC50 was 21.3 µM with A-549 (setting [3]) and 36.2 µM in the data set on HT-29 (setting [5]). Further, in the data set with A-549, the “A-549 TGI” value came out at 9.45E−06. The “HT-29 TGI” value with HT-29 came out at 3.62E−05. The CC50 at 48 h in data set [1] (H-MEC-1 LC50, SRB assay) stood at 36.2 µM. In the data set on HMEC1, the “H-MEC-1 TGI” value worked out at 8.00E−06.
For `CSc1nccc(-c2c3c(Cl)ccnc3n3c(SC)nccc23)n1` [Compound 84], the GI50 with A-549 (setting [7]), in the data set on HT-29 (setting [9]) and with HMEC1 (setting [11]) was 26.7 µM throughout. Further, the CC50 with A-549 (setting [8]) and in the data set on HT-29 (setting [10]) was 26.7 µM each time. For the same compound, the “TGI A-549” value with A-549 worked out at 2.67E−05. Also, in the data set with HT-29, the “TGI HT-29” value came out at 2.67E−05. In data set [1] (LC50 H-MEC-1, SRB assay), this compound displayed a CC50 at 48 h of 26.7 µM. Moreover, in the data set on HMEC1, the “TGI H-MEC-1” value was 2.67E−05.
As for `COc1ccc(CNc2ccnc3c2c(-c2ccnc(SC)n2)c2ccnc(NCc4ccc(OC)cc4)n23)cc1` [Compound 85], the GI50 is 6.58 µM in the data set on A-549 (setting [7]), 12.2 µM in the data set on HT-29 (setting [9]) and 6.19 µM with HMEC1 (setting [11]). In addition, the CC50 in the data set on A-549 (setting [8]) and in the data set on HT-29 (setting [10]) was 17.7 µM in each case. Besides, in the data set on A-549, the “TGI A-549” value stood at 1.77E−05. Also, the “TGI HT-29” value in the data set on HT-29 is recorded as 1.77E−05. In addition, the CC50 at 48 h in data set [1] (LC50 H-MEC-1, SRB assay) amounted to 17.7 µM. Moreover, in the data set on HMEC1, the “TGI H-MEC-1” value was 1.77E−05.
Turning to `CSc1nccc(-c2c3c(N)ccnc3n3c(N)nccc23)n1` [Compound 92], the GI50 in the data set on A-549 (setting [7]) was 1.76 µM; in the data set on HT-29 (setting [9]), 2.04 µM; in the data set with HMEC1 (setting [11]), 0.782 µM. Further, the CC50 was 24.4 µM in the data set with A-549 (setting [8]) and 30.9 µM in the data set with HT-29 (setting [10]). Also, the “TGI A-549” value in the data set on A-549 is given as 6.03E−06. Further, the “TGI HT-29” value with HT-29 is 3.09E−05. For the same compound, in data set [1] (LC50 H-MEC-1, SRB assay), the CC50 at 48 h was determined as 30.9 µM. Besides, the “TGI H-MEC-1” value in the data set on HMEC1 is on record as 3.09E−06.
